In ChEMBL document CHEMBL5308504, “Tm Shift (DSF) assay results for EUbOPEN Chemogenomics Library” (2023):
“And” between values parts separate entries of the source, which are not always exact repeats. Equal entries are not always repeated. Numbered stars: 1 amine (or outer) side, 2 acyl side, 3 side chain; on linkers, the order of the positions; unused ones are H or OH. Bridge positions count the residues as written; N and C are the ends. Square brackets hold non-standard residues; d marks the D form. Peptide text beside a SMILES is read from it. I, II: the chains in the order shown. Hexamethylenediamine = C(CCCN[*:2])CCN[*:1]; Dip = N[C@H](C(=O)O)C(c1ccccc1)c1ccccc1; Chg = N[C@H](C(=O)O)C1CCCCC1; NMeA = CN[C@@H](C)C(=O)O

Assays:
[1] = target: T1, Peregrin (Homo sapiens) (UniProt P55201); details: Compound concentration 20.0 uM, Protein concentration 2.0 uM, Result type QC Liability
T1 sequence (whole entry): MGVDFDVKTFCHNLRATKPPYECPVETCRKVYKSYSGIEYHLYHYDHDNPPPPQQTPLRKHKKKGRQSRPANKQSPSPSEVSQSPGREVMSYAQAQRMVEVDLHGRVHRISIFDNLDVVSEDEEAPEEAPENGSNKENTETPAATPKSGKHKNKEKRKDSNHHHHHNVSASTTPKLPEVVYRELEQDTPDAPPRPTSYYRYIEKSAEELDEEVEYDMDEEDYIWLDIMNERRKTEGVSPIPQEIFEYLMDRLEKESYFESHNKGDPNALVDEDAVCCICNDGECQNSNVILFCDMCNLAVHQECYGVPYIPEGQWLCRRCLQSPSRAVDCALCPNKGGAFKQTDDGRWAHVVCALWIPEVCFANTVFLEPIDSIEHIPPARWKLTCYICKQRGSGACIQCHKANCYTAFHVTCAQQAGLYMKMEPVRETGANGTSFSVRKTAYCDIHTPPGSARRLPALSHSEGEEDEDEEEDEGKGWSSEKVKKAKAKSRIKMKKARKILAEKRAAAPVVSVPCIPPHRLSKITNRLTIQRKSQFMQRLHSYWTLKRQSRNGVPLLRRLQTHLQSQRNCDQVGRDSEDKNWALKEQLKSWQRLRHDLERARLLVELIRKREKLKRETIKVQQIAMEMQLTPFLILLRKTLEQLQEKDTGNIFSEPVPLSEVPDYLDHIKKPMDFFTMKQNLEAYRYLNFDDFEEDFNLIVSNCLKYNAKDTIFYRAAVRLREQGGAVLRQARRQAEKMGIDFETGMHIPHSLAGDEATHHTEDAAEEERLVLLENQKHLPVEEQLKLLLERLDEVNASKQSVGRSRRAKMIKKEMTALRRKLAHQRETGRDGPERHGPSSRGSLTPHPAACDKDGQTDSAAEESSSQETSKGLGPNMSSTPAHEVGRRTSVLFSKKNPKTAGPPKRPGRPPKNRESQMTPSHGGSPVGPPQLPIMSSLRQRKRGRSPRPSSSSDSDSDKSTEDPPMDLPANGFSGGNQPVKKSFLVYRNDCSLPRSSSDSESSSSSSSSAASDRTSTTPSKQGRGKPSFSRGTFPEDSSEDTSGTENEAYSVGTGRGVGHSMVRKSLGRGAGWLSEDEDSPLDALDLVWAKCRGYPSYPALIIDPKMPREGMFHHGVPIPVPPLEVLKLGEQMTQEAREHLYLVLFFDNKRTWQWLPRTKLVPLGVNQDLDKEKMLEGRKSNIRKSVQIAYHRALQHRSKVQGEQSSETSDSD

[2] = target: Fibroblast growth factor receptor 3 (Homo sapiens) (UniProt P22607); details: Compound concentration 20.0 uM, Protein concentration 2.0 uM, Result type QC Liability
Chain of Fibroblast growth factor receptor 3 (Homo sapiens) (P22607 23-806 limits assumed): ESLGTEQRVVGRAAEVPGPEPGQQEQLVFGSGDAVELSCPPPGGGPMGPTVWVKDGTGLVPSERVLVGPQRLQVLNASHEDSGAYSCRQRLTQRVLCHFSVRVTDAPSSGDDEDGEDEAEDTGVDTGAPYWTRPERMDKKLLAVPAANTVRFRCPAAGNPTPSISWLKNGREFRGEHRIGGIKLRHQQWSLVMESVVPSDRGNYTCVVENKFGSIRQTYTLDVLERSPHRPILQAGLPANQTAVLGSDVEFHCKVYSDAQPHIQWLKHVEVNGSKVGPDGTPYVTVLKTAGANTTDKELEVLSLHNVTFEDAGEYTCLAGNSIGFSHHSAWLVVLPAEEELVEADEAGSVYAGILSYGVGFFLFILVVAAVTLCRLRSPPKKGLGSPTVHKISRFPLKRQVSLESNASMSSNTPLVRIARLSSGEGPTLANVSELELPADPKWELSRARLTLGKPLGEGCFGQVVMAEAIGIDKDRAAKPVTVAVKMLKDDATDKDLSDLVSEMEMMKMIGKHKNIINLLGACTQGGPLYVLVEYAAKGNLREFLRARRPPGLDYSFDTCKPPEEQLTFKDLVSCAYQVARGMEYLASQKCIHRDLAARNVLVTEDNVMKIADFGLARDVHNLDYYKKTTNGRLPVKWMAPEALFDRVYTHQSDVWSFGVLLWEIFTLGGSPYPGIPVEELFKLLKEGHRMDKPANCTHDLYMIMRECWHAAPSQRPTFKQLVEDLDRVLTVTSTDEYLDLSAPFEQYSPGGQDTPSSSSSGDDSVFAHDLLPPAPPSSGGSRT
Description: Thermal Shift Assay. Domain: start/stop: P449-E759

SMILES	ΔTm [1]	ΔTm [2]
CNC(=O)c1cccc(-c2ccc3c(N4CCOC[C@@H]4C)nc(N4CCOC[C@@H]4C)nc3n2)c1	-1.11 °C	0.5 °C
O=C(Nc1ccccc1C(=O)O)c1cc(S(=O)(=O)c2ccccc2)ccc1Cl	-3.6 °C	0.83 °C
Fc1ccc(-c2c3cccc(C(F)(F)F)c3nn2Cc2ccc(F)cc2Cl)cc1	-2.25 °C	0.67 °C
CCOc1cc(CC(=O)N[C@@H](CC(C)C)c2ccccc2N2CCCCC2)ccc1C(=O)O	-3.67 °C	0.18 °C
CCNC(=O)c1ccc2c(c1)NC(=O)/C2=C(\Nc1ccc(CN(C)C)cc1)c1ccccc1	-2.4 °C and -1.23 °C	1.15 °C and 1.47 °C
COc1cc(C(=O)NCCOCCOCCOCC(=O)N[C@H](C(=O)N2C[C@@H](O)C[C@H]2C(=O)NCc2ccc(-c3scnc3C)cc2)C(C)(C)C)ccc1Nc1ncc(C(F)(F)F)c(Oc2cccc3c2C(=O)CC3)n1	1.72 °C	1.69 °C
Cc1ccc(-n2nc(C(C)(C)C)cc2NC(=O)Nc2ccccc2F)cc1	-0.3 °C	2.28 °C
C[C@@H](CN1CC[C@@]2(C)c3cccc(O)c3C[C@@H]1C2(C)C)OCc1ccccc1	-1.96 °C	1.19 °C
O=C(N[C@H]1CCC[C@H](CO)C1)C1CCN(c2nc3cc(Cl)c(-c4ccc(Cl)cc4)cc3o2)CC1	-0.52 °C	-8.62 °C
CN[C@@H](C)C(=O)N[C@H](C(=O)N1CCC[C@H]1C(=O)N[C@@H]1CCCc2ccccc21)C1CCCCC1	-1.87 °C	0.75 °C
CC(C)(O)[C@H](F)CN1Cc2cc(NC(=O)c3cnn4cccnc34)c(N3CCOCC3)cc2C1=O	-1.78 °C	2.76 °C
CO[C@H](C)CN1CC[C@]2(C)c3cccc(O)c3C[C@H]1C2(C)C	-1.37 °C	0.41 °C
CC(C)(C[C@H]1CN(S(=O)(=O)c2cccc(C(F)(F)F)c2)c2cc(-c3cc(F)cc(OC(F)F)c3)ccc2O1)C(=O)O	-3.42 °C	-0.98 °C
O=C(O)Cc1cc(I)c(Oc2ccc(O)c(I)c2)c(I)c1	-2.62 °C	-0.28 °C
COc1cc(-c2cn(C)c(=O)c3cnccc23)cc(OC)c1CN(C)C	1.79 °C	0.44 °C
CC(C)Oc1ccc(Cc2ccc(NC3=NCCN3)cc2)cc1	-3.24 °C	0.39 °C
O=C1NC(=NCc2cccs2)SC1=Cc1ccc2ncccc2c1	-1.16 °C	0.61 °C
CCC(=O)N[C@H]1CC[C@@H](C(=O)N(C)c2ccc(-c3nc4ccccc4o3)cc2)C1	-2.71 °C	0.8 °C
N#Cc1cccc(-c2c[nH]c3ncnc(N4CCOCC4)c23)c1	-1.1 °C	2.14 °C

SMILES	ΔTm [1]	ΔTm [2]
COc1cc(C)c(S(=O)(=O)N(C)CCOCC(=O)N(C)[C@H]2CCC[C@@H](N3CCN(C)CC3)C2)c(C)c1	-2.36 °C	0.64 °C
COc1ccc(Br)cc1S(=O)(=O)NC(=O)/C=C/c1cc(Cl)ccc1Cc1ccc2ccccc2c1	-10.6 °C	0.7 °C
CCn1c(-c2nonc2N)nc2cncc(C(=O)N3CC[C@H](N)C3)c21	-1.78 °C	0.35 °C
Cc1nc(Nc2cnn(C3CCNCC3)c2)nc2c1N(C)C(=O)c1cc3ccccc3cc1N2C	-2.69 °C	1.22 °C
Cc1cc(Cl)ccc1S(=O)(=O)NC[C@H]1C2CCC(CC2)[C@@H]1/C=C\CCCC(=O)O	-2.88 °C	0.12 °C
CNC(=O)c1cc(C(=O)NC2CC2)cn(Cc2ccccc2)c1=O	-0.87 °C	0.5 °C
COc1ccc2c(O[C@@H]3C[C@H]4C(=O)N[C@]5(C(=O)NS(=O)(=O)C6(C)CC6)CC5/C=C\CCCCC[C@H](NC(=O)c5ccn(C)n5)C(=O)N4C3)cc(OC(C)C)nc2c1C (some centres not stated)	-0.57 °C	0.93 °C
O=C1CCCN1CCNc1nc(Nc2ccc(Cl)c(Cl)c2)ncc1C(F)(F)F	-1.78 °C	4.63 °C
CC[C@H](NC(=O)[C@H](C)NC)C(=O)N1C[C@@H](O)C[C@H]1Cc1c(-c2[nH]c3cc(F)ccc3c2C[C@@H]2C[C@H](O)CN2C(=O)[C@H](CC)NC(=O)[C@H](C)NC)[nH]c2cc(F)ccc12	-1.75 °C	0.75 °C
CN(C)C/C=C/C(=O)Nc1cc2c(Nc3ccc(F)c(Cl)c3)ncnc2cc1OC[C@@H]1CCCO1	-0.41 °C	1.49 °C
CC(=O)N1CCC(c2ccc(C(=O)NC3=NCCN3)cc2C(F)(F)F)CC1	-1.55 °C	0.6 °C
Cc1nc2c(cc1F)c(-c1nnc3c(n1)NC(=O)C3(C)C)nn2Cc1cccc(F)c1F	-2.09 °C	0.5 °C
CC(C)S(=O)(=O)c1ccccc1Nc1nc(N[C@@H]2CCCN(CCCCCCCNC(=O)COc3cccc4c3C(=O)N(C3CCC(=O)N(C)C3=O)C4=O)C2)ncc1Cl (some centres not stated)	-2.55 °C	8.15 °C
Cc1nc2ccc(Oc3ccc(F)cc3)cc2c(=O)n1C[C@H]1CCCN(C(C)C)C1	-2.47 °C	0.96 °C
COc1ccccc1N1CCN(c2ncnc3c2cnn3-c2ccccc2)CC1	-1.23 °C	0.51 °C
CNc1oc(-c2cccc3ccccc23)nc1C#N	-2.17 °C	0.61 °C
C=C(F)C(=O)N1CCN(c2nc(OC[C@@H]3CCCN3C)nc3c2CCN(c2cccc4cccc(Cl)c24)C3)C[C@@H]1CC#N	-3.96 °C	0.12 °C
Cc1ncsc1-c1ccc(CNC(=O)[C@@H]2C[C@@H](O)CN2C(=O)[C@@H](NC(=O)CCCCNC(=O)c2ccc(-c3ccc(N4CCN(C)CC4)c(NC(=O)c4c[nH]c(=O)cc4C(F)(F)F)c3)cc2)C(C)(C)C)cc1	1.18 °C	-2.23 °C
CS(=O)(=O)NC(=O)CCC/C=C\C[C@H]1C(=O)C[C@@H](O)[C@@H]1/C=C/[C@@H](O)COc1ccccc1	-1.73 °C	0.49 °C

SMILES	ΔTm [1]	ΔTm [2]
CCc1nc(C2CCC2)n2nc(-c3ccccc3)[nH]c(=O)c12	-2.47 °C	0.69 °C
FC(F)(F)c1ccc(CNc2ccc(Cc3c[nH]c4ncc(Cl)cc34)cn2)cn1	-0.43 °C	3.63 °C
CN[C@@H](C)C(=O)N[C@H](C(=O)N1CCC[C@H]1C(=O)N[C@H](C(=O)NCCCCCCNC(=O)[C@@H](NC(=O)[C@@H]1CCCN1C(=O)[C@@H](NC(=O)[C@H](C)NC)C1CCCCC1)C(c1ccccc1)c1ccccc1)C(c1ccccc1)c1ccccc1)C1CCCCC1 (I: H-[NMeA][Chg]P[Dip] / II: H-[NMeA][Chg]P[Dip]; linker I:C-II:C via Hexamethylenediamine)	-2.83 °C	0.66 °C
COc1cc(-c2cc3ncccc3c(O[C@H](C)[C@H]3CNC(=O)C3)n2)cc(OC)c1OC	-2.14 °C and -1.33 °C	1.61 °C and 1.56 °C
COc1cc(-c2nn([C@H]3CC[C@H](N4CCN(C(C)=O)CC4)CC3)c3ncnc(N)c23)ccc1NC(=O)c1cc2ccccc2n1C	-2.71 °C	0.83 °C
O=c1[nH]c(CS[C@H]2CC[C@H](O)CC2)nc2cc(OCC3CC3)cc(F)c12	-0.45 °C	0.65 °C
COc1cc(C(N)=O)ccc1Nc1ncc2c(n1)N(CCC(C)C)[C@H](C)C(=O)N2C	1.82 °C	1.76 °C
COCCN(C)c1ccc(NC(=O)/C=C(\C)c2ccc3ccccc3c2)c(C(=O)O)c1	-1.83 °C	1.15 °C
COC[C@@H](C)N[C@H]1CC[C@H](Nc2cc(-c3cccc(NCC4(C#N)CCOCC4)n3)c(Cl)cn2)CC1	-1.02 °C	0.39 °C
C[C@@H]1CC(=O)N(C2CC2)N=C1c1ccc(NC(=O)N2Cc3ccncc3C2)cc1	-2.03 °C	0.58 °C
COc1cc(C)c(S(=O)(=O)N(C)CCC(=O)N[C@H]2CC[C@@H](N3CCC4CN(C)CC4C3)CC2)c(C)c1 (some centres not stated)	-3.59 °C	1.1 °C
CCOC(=O)C1Cc2ccccc2CN1C(=O)c1ccc(SC)s1 (configuration not stated)	-1.13 °C	0.41 °C
CN1CCC(F)(Cn2cnc(-c3ccc(F)cn3)c2-c2ccnc3[nH]ccc23)CC1	-0.88 °C	0.5 °C
CC(=O)c1c(C)c2cnc(Nc3ccc(N4CCN(CCOCCOCCOCCNC(=O)COc5cccc6c5C(=O)N(C5CCC(=O)NC5=O)C6=O)CC4)cn3)nc2n(C2CCCC2)c1=O (configuration not stated)	-1.99 °C	0.48 °C
Fc1ccc(-c2nc(-c3ccc4ccccc4c3F)[nH]c2-c2ccncc2)cc1	0.17 °C	1.19 °C
CC(C)N(CCCCOCC(=O)O)c1cnc(-c2ccccc2)c(-c2ccccc2)n1	-4.18 °C	-0.51 °C
N#Cc1ccc(C#CC[C@@H](C#N)NC(=O)[C@@H]2CCCCN2)cc1F	-2.06 °C	0.43 °C
O=C(Nc1cccc(Nc2nccc(Nc3cccc(C(F)(F)F)c3)n2)c1)C1CC1	0.79 °C	3.3 °C
